From US9834755B2, “Compositions and methods for enhanced generation of hematopoietic stem/progenitor cells” (FRED HUTCHINSON CANCER RESEARCH CENTER, priority 2011, dated 2017)
Marks after values point to notes of the source that are not given here.

B1: Delta1^Ext-IgG: engineered Notch ligand: extracellular domain of Delta1 fused to the Fc portion of human IgG1, immobilized on tissue culture flasks (protein)
chain: QVWSSGVFELKLQEFVNKKGLLGNRNCCRGGAGPPPCACRTFFRVCLKHYQASVSPEPPCTYGSAVTPVLGVDSFSLPDGGGADSAFSNPIRFPFGFTWPGTFSLIIEALHTDSPDDLATENPERLISRLATQRHLTVGEEWSQDLHSSGRTDLKYSYRFVCDEHYYGEGCSVFCRPRDDAFGHFTCGERGEKVCNPGWKGPYCTEPICLPGCDEQHGFCDKPGECKCRVGWQGRYCDECIRYPGCLHGTCQQPWQCNCQEGWGGLFCNQDLNYCTHHKPCKNGATCTNTGQGSYTCSCRPGYTGATCELGIDECDPSPCKNGGSCTDLENSYSCTCPPGFYGKICELSAMTCADGPCFNGGRCSDSPDGGYSCRCPVGYSGFNCEKKIDYCSSSPCSNGAKCVDLGDAYLCRCQAGFSGRHCDDNVDDCASSPCANGGTCRDGVNDFSCTCPPGYTGRNCSAPVSRCEHAPCHNGATCHERGHRYVCECARGYGGPNCQFLLPELPPGPAVVDLTEKLEGQGGPFPW
modifications: left off: a dimerising Fc or GST
notes: engineered Notch ligand: extracellular domain of Delta1 fused to the Fc portion of human IgG1, immobilized on tissue culture flasks

Key:
CD34+ cells = settings: cited from earlier work
[1] = tested on: mobilized peripheral blood stem cells (mPBSC); assay: Ex vivo culture of mobilized peripheral blood stem cells; format: cell-based, human; settings: mPBSC cultured 16 days
Experimental: (§1) Human cord blood samples for research were obtained from normal deliveries under Swedish Medical Center Institutional Review Board (Seattle) approval and after consent was obtained. The units were incubated in ammonium chloride red blood cell lysis buffer (consisting of 16.6 g NH4Cl, 2 g NaHCO3 and 74.4 mg EDTA per 2L of water) and resuspended in PBS with 2% human AB serum. Cells were incubated with CD34 Microbeads from Miltenyi Biotec and purified with an Automacs (Miltenyi Biotec). Cells were then frozen and thawed at time of use with PBS+1% FBS. Pools of 2 or more cord blood units were used for all experiments. Peripheral blood stem cells (PBSC) were obtained from a single donor and cryopreserved after CD34^+ cell selection.
Cells were cultured for 16 days in non-tissue-cultured-treated tissue culture flasks (25, 75, and 175-cm^2). Flasks were precoated with Delta1^ext-IgG (ligand preparation described in Delaney C. et al., 2005, Blood 106(8):2693-2699; and Varnum-Finney et al., 2000, J. Cell Science 113: 4313-4318), or human control IgG at 2.5 μg/ml and retronectin 5 μg/ml. Delta1^ext-IgG titrations were performed with concentrations of 0.5, 1.25 (for PBSC), 2.5, or 5 μg/ml. Flasks were incubated at 4° C. overnight or 37° C. for 2 hours and then washed with PBS and blocked with PBS 2% BSA for 30 minutes at 37° C. […]

HSPC = settings: culturing HSPC with SR1; cited from earlier work
CD34^+ CB HSPC [2] = assay: Ex vivo culture/expansion of CD34+ cord blood HSPC, cell counts and flow cytometric phenotype; format: cell-based, human; settings: for CD34 expansion compared to IgG control: 7, 14, 18 and 21 days in culture, alone groups: data not shown
Experimental: as §1
Cells were cultured for 16 days in non-tissue-cultured-treated tissue culture flasks (25, 75, and 175-cm^2). Flasks were precoated with Delta1^ext-IgG (ligand preparation described in Delaney C. et al., 2005, Blood 106(8):2693-2699; and Varnum-Finney et al., 2000, J. Cell Science 113: 4313-4318), or human control IgG at 2.5 μg/ml and retronectin 5 μg/ml. Delta1^ext-IgG titrations were performed with concentrations of 0.5, 1.25 (for PBSC), 2.5, or 5 μg/ml. Flasks were incubated at 4° C. overnight or 37° C. for 2 hours and then washed with PBS and blocked with PBS 2% BSA for 30 minutes at 37° C. Cells were cultured in StemSpan serum-free expansion medium in the presence of 4 growth factors (IL6 (50 ng/ml), thrombopoietin (50 ng/ml), Flt-3 ligand (50 ng/ml), stem cell factor (50 ng/ml)) or 5 growth factors (4 growth factors plus IL3 (10 ng/ml)). SR-1 was made fresh and added to cells with all feedings at a concentration of 750 nM. Cultures in 25-cm^2 flasks were initiated with between 7×10^4 and 1.3×10^5 CD34^+ cells. Cultures in 75-cm^2 flasks were initiated with 3×10^5 CD34^+ cells. Cells were expanded to larger flasks when they exceeded cell density >1×10^6 cells/ml. Expansions typically occurred on day 7 and 10 of culture. Fresh media with cytokines was added very 3-4 days including the day prior to transplantation.
Immunofluorescence analysis was performed as described (see Ohishi et al., 2002, J Clin Invest. 110(8): 1165-1174), with FITC-labeled antibodies against human CD3, CD14, CD15, CD33, CD34, CD90, phycoerythryin (PE)-labeled antibodies against human CD19, CD56, CD90, CD133, Glycophorin A, CXCR4, PERCP-labeled antibodies against human CD14, CD34, APC-labeled antibodies against human CD45, CD90 and PECy7 labeled antibody against mouse CD45.1.
To determine whether Delta1^Ext-IgG and SR1 in combination were successfully able to expand CD34^+ CB HSPC ex vivo, CD34^+ cell generation, an HSPC enriched population routinely used in clinical application, was assessed at multiple time points in culture as compared to IgG control. CD34^+ CB progenitors were isolated by bead selection and Automacs and then cultured for 21 days in StemSpan serum-free expansion media supplemented with cytokines (TPO, SCF, IL-6, and Flt3-ligand at 50 ng/ml). […] Cells were cultured in the presence of SR1 (750 nM) and Delta1^Ext-IgG (0.5 or 2.5 μg/ml) or an IgG control. The engineered Notch ligand, Delta1^ext-IgG, contains the extracellular domain of Delta1 fused to the Fc portion of human IgG1 and is immobilized on the plastic surface of tissue culture flasks at varying densities. Immobilization of the Fc portion of human IgG1 served as a control construct. […] CD34^+ selected cells were seeded per flask from a pool of 2 CB units. […]

CD34^+ cord blood HSPC = settings: culturing HSPC with SR1; cited from earlier work
CD34^+ CB HSPC [3] = assay: In vivo repopulation: cultured progeny of CD34+ CB HSPC transplanted into sublethally irradiated NSG mice; parameters: species or system human; settings: for human engraftment upon secondary transplantation, average CD45^+: differences not statistically significant
Experimental: Sublethally irradiated NOD-SCID IL-2Rγ-null mice (obtained from an established breeding colony at the Fred Hutchinson Cancer Research Center and approved for use by the Fred Hutchinson Cancer Research Center Institutional Animal Care and Use Committee) were infused with the progeny 10,000 starting CD34^+ cells per mouse via tail vein for cord blood experiments and the progeny of 20,000 for PBSC experiments. Repopulating ability of infused cells was assessed at 2-3 weeks post-transplant by bone marrow aspiration and at 13 weeks by bone marrow harvest.
Cells were cultured as described above and transplanted into sublethally irradiated immunodeficient NSG mice. Total human engraftment was defined as percent of human CD45^+ murine CD45.1^− cells based on bone marrow aspirate at 2 weeks post-transplant. Total myeloid engraftment was defined as percent human CD45^+CD33^+ murine CD45.1 cells on bone marrow aspirate at the same time point.
The progeny of 1×10^4 CD34^+ cells were then transplanted into 10 sublethally irradiated NSG mice per condition and engraftment was assessed by bone marrow aspirate at 2 weeks post-transplant. Total human engraftment was defined as percent of human CD45^+ murine CD45.1^− cells based on bone marrow aspirate at 2 weeks post-transplant. Total myeloid engraftment was defined as percent human CD45^+CD33^+ murine CD45.1^− cells on bone marrow aspirate at the same time point.
Transplants into NSG mice were performed as described above, with the cultured progeny of 1×10^4 CD34^+ cells. Cells were cultured in the presence of SR1, Delta1^Ext-IgG 2.5 μg/ml, or SR1 and Delta1^Ext-IgG (2.5 or 5 μg/ml) for 16 days.
Cells were cultured and transplanted as described above with the progeny of 1×10^4 CD34^+ cells transplanted per mouse. Total human, progenitor cell, myeloid, and lymphoid assessments were performed on bone marrow samples. Bone marrow aspirates were performed in the mice at 2 and 8 weeks post-transplant, and mice were sacrificed for bone marrow harvest at 13 weeks.

CD34^+ CB HSPC [4] = assay: SRC frequency by limiting dilution analysis in NSG mice; format: in vivo, human; settings: Delta1^Ext-IgG 2.5 μg/ml alone, 5 μg/ml with SR1; for No. mice engrafted, Engraftment with ≧0.5% CD34^+ cells / No. mice engrafted, Engraftment with ≧1% CD33^+ cells / No. mice engrafted, Engraftment with ≧1% CD34^+ cells / No. mice engrafted, Engraftment with ≧5% CD33^+ cells: bone marrow aspirate at 2 weeks; for CD33^+ SRC frequency per starting cell, Engraftment with ≧1% CD33^+ cells / CD33^+ SRC frequency per starting cell, Engraftment with ≧5% CD33^+ cells / CD34^+ SRC frequency per starting cell, Engraftment with ≧0.5% CD34^+ cells / CD34^+ SRC frequency per starting cell, Engraftment with ≧1% CD34^+ cells: limiting dilution analysis, maximum likelihood
Excerpt: Human cord blood (CB) samples for research were obtained from normal deliveries under Swedish Medical Center Institutional Review Board (Seattle) approval and after consent was obtained. CB samples were red blood cell depleted (Delaney et al., 2010, Nat Med 16(2):232-236), CD34 enriched using CD34^+ immunomagnetic particles (Miltenyi Biotec), purified with Automacs (Miltenyi Biotec), and cryopreserved. […] Cultures were initiated with 7×10^4 to 1.3×10^5 CD34^+ cells for 25-cm^2 flasks and with 3×10^5 CD34^+ cells for 75-cm^2 flasks. Immunofluorescence analysis was performed as described (Ohishi et al., 2002, J Clin Invest. 110(8):1165-1174) with labeled antibodies: FITC (human CD14, CD33, and Lineage); PE (human CD7, CD14, CD15, CD19, CD90, and CD123); PERCP (human CD34); APC (human CD10, CD45, IL3Ra); PECy7 (mouse CD45.1, human CD34); Alexa Fluor 700 (CD38); APC-eFluor 780 (CD45RA). Transplants were performed in sublethally irradiated (275 rad) NOD-SCID IL-2Rγ-null mice (NSG). In vivo engraftment was assessed by immunofluorescence analysis of human cell subsets (human CD45^+ murine CD45.1). On average, the total number of cells infused was 4.25×10^6/mouse for Delta1^ext-IgG alone, 1.88×10^7/mouse for SR1 alone, and 4.76×10^6/mouse for the combination. Statistical analyses were performed as indicated. For limiting dilution analysis, mice were injected with the cultured progeny of the number of CD34^+ cells indicated and bone marrow aspirates performed at 2 weeks. Two engraftment cut-offs were chosen based on percent engraftment observed in non-limiting transplantation studies. The frequency of SRCs was determined by the method of maximum likelihood with L-CALC software (StemCell Technologies) from the proportions of engrafted recipients (A, B).

[5] = patients, vs concurrent cohort receiving double cord blood transplantation of non-manipulated units; cited from earlier work

| Molecule | EC50 (CD34+ cells) [nM] | CD34 expansion compared to IgG control (CD34^+ CB HSPC [2]) | human engraftment upon secondary transplantation, average CD45^+ (CD34^+ CB HSPC [3]) [%] | No. mice engrafted, Engraftment with ≧0.5% CD34^+ cells (CD34^+ CB HSPC [4]; 1000 CD34^+ cells/mouse) | No. mice engrafted, Engraftment with ≧1% CD33^+ cells (CD34^+ CB HSPC [4]; 1000 CD34^+ cells/mouse) | No. mice engrafted, Engraftment with ≧1% CD34^+ cells (CD34^+ CB HSPC [4]; 1000 CD34^+ cells/mouse) | No. mice engrafted, Engraftment with ≧5% CD33^+ cells (CD34^+ CB HSPC [4]; 1000 CD34^+ cells/mouse) | No. mice engrafted, Engraftment with ≧0.5% CD34^+ cells (CD34^+ CB HSPC [4]; 4000 CD34^+ cells/mouse) | No. mice engrafted, Engraftment with ≧1% CD33^+ cells (CD34^+ CB HSPC [4]; 4000 CD34^+ cells/mouse) | No. mice engrafted, Engraftment with ≧1% CD34^+ cells (CD34^+ CB HSPC [4]; 4000 CD34^+ cells/mouse) | No. mice engrafted, Engraftment with ≧5% CD33^+ cells (CD34^+ CB HSPC [4]; 4000 CD34^+ cells/mouse) | No. mice engrafted, Engraftment with ≧0.5% CD34^+ cells (CD34^+ CB HSPC [4]; 20000 CD34^+ cells/mouse) | No. mice engrafted, Engraftment with ≧1% CD33^+ cells (CD34^+ CB HSPC [4]; 20000 CD34^+ cells/mouse) | No. mice engrafted, Engraftment with ≧1% CD34^+ cells (CD34^+ CB HSPC [4]; 20000 CD34^+ cells/mouse) | No. mice engrafted, Engraftment with ≧5% CD33^+ cells (CD34^+ CB HSPC [4]; 20000 CD34^+ cells/mouse) | CD33^+ SRC frequency per starting cell, Engraftment with ≧1% CD33^+ cells (CD34^+ CB HSPC [4]) | CD33^+ SRC frequency per starting cell, Engraftment with ≧5% CD33^+ cells (CD34^+ CB HSPC [4]) | CD34^+ SRC frequency per starting cell, Engraftment with ≧0.5% CD34^+ cells (CD34^+ CB HSPC [4]) | CD34^+ SRC frequency per starting cell, Engraftment with ≧1% CD34^+ cells (CD34^+ CB HSPC [4]) | also measured |
| --- | --- | --- | --- | --- | --- | --- | --- | --- | --- | --- | --- | --- | --- | --- | --- | --- | --- | --- | --- | --- |
| CC(C)n1cnc2c(NCCc3ccc(O)cc3)nc(-c3cncc(F)c3)nc21 [Example 134] | 200 |  |  |  |  |  |  |  |  |  |  |  |  |  |  |  |  |  |  |  |
| CC(C)n1cnc2c(NCCc3ccc(O)cc3)nc(-c3cccc4cnccc34)nc21 [Example 145] | 5400 |  |  |  |  |  |  |  |  |  |  |  |  |  |  |  |  |  |  |  |
| Fc1cncc(-c2nc(NCCc3c[nH]c4ccccc34)c3ncn(C4CCOC4)c3n2)c1 (stereo not drawn) [Example 158] | 12 |  |  |  |  |  |  |  |  |  |  |  |  |  |  |  |  |  |  |  |
| CC(C)n1cnc2c(NCCc3ccc(O)cc3)nc(-c3cnccc3C#N)nc21 [Example 143] | 4300 |  |  |  |  |  |  |  |  |  |  |  |  |  |  |  |  |  |  |  |
| CC(C)n1cnc2c(NCCc3ccc(O)cc3)nc(-c3csc4ccccc34)nc21 [SR1, 4-(2-(2-(benzo[b]thiophen-3-yl)-9-isopropyl-9H-purin-6-ylamino)ethyl)phenol] |  | enhanced CD34 expansion | 0.11 | 1/9 | 3/9 | 1/9 | 1/9 | 2/9 | 5/9 | 1/9 | 1/9 | 7/7 | 7/7 | 6/7 | 7/7 | 1/3868** | 1/10063^## | 1/8495** | 1/13514^## | TNC and CD34^+ cell expansion in vitro [1]: greatest TNC and CD34^+ cell expansion; increase in the number of cells with the ability to repopulate immunodeficient mice (HSPC): 17 fold; total nucleated cell (TNC) expansion over IgG control and all Delta1^Ext-IgG conditions (CD34^+ CB HSPC [2]; 7-16 days in culture): enhanced; ex vivo generation of total nucleated cells (TNC) compared to Delta1^Ext-IgG (2.5 μg/ml) or SR1 and Delta1^Ext-IgG (5 μg/ml) combined (CD34^+ CB HSPC [2]; SR1 750 nM, 14 days, p<0.001, p=0.04): significantly enhanced; increase in CD34^+ cells (CD34^+ cord blood HSPC): 50 fold; rapid repopulation by B-lymphoid cells (percent CD45^+CD33^-CD19^+) in comparison with Delta1^Ext-IgG alone or the combination (CD34^+ CB HSPC [3]; early time point (2 weeks)): significantly enhanced |
| B1 |  | enhanced CD34 expansion | 0.22 | 0/9 | 2/9 | 0/9 | 0/9 | 1/9 | 9/9 | 0/9 | 3/9 | 7/7 | 7/7 | 6/7 | 6/7 | 1/1719* | 1/11314^# | 1/11739* | 1/19121^# | TNC generation with increasing densities of Delta1^Ext-IgG (CD34^+ CB HSPC [2]; day 16, SR1 with Delta1^Ext-IgG 0, 0.5, 2.5 or 5 μg/ml): decreased TNC generation in a stepwise manner; reduction in time to neutrophil engraftment [5]: 50% |
